Experimental data taken from US20210255193A1, “LYSINE REACTIVE PROBES AND USES THEREOF” (The Scripps Research Institute, priority 2017, published 2021).
Each block holds one compound with its values, some of them ahead of it.

Columns and labels:
Experiment in all cases: competitive isoTOP-ABPP
Format in all cases: binding
[1] = target: T1, TPD52L2 Tumor protein D54 (Homo sapiens, UniProt O43399); design: key to isoTOP-ABPP reactivity ratio at lysine O43399_K90: R = MS1 peak area ratio, DMSO (heavy) / compound-treated (light); conditions: for isoTOP-ABPP ratio (R) at liganded lysine O43399_K90: sol, 231
T1 construct: isoTOP-ABPP experiments performed in cell lysates (in vitro); endogenous in cells; host or cells: MDA-MB-231 soluble lysate
Protocol: (§1) In vitro covalent fragment treatment for isoTOP-ABPP. All compounds were made up as solutions in DMSO (100×) and were used at a final concentration of 50 μM for activated esters and 100 μM for guanidinylating agents. For each profiling sample, 0.5 ml of lysate was treated with 5 μl of the 100× compound stock solution or 5 μl of DMSO. Samples were treated with activated esters for
(§2) STP-alkyne labeling and click chemistry. For concentration-dependent reactivity measurements by isoTOP-ABPP, 0.5 ml proteome aliquots were treated at ambient temperature with 1 mM STP-alkyne 1 (5 μl of 100 mM stock in DMSO) and 0.1 mM STP alkyne 1 (5 μl of 10 mM stock in DMSO), respectively. For competitive isoTOP-ABPP, after in vitro fragment treatment (detailed above), the samples were labeled for 1 h at ambient temperature with 0.1 mM STP-alkyne 1 (5 μl of 10 mM stock in DMSO). Samples were conjugated by copper-mediated azide-alkyne cycloaddition (CuAAC) to either the light (1 mM STP-alkyne or fragment treated) or heavy (0.1 mM STP-alkyne or DMSO treated) TEV tags (10 μl of 5 mM stocks in DMSO, final concentration=100 μM) using tris(2-carboxyethyl)phosphine hydrochloride
(§3) R value calculation and processing. The ratios of light and heavy MS1 peaks for each unique peptide were quantified with a CIMAGE software using default parameters (3 MS1 acquisitions per peak and signal to noise threshold set to 2.5). For reactivity measurements by isoTOP-ABPP, the R value was calculated from the ratio of MS1 peak areas, comparing the 1 mM STP alkyne sample (light TEV tag) with the 0.1 mM STP alkyne sample (heavy TEV tag). For competitive isoTOP-ABPP, the R value was calculated from the ratio of MS1 peak areas, comparing the DMSO treated sample (heavy TEV tag) with the compound treated sample (light TEV tag). […] Ratios for unique peptide entries are calculated for each experiment; overlapping peptides with the same modified lysine (for example, different charge states, MudPIT chromatographic steps or tryptic termini) are grouped together and the median ratio is reported as the final ratio (R). The peptide ratios reported by CIMAGE were further filtered to ensure the removal or correction of low-quality ratios in each individual data set. The quality filters applied were the following: removal of half tryptic peptides; for ratios with high standard deviations from the median (90% of the median or above) the lowest ratio was taken instead of the median; removal of peptides with R=20 and only a single MS2 event triggered during the elution of the parent ion; manual annotation of all the peptides with ratios of 20, removing any peptides with low quality elution profiles that remained after the previous curation steps (only done for competitive isoTOP-ABPP).
(§4) Cross-data processing for fragment screening. For compound treated samples, biological replicates of the same condition were averaged, if the standard deviation was below 60% of the mean; otherwise, for lysines with at least one R value <4 for a particular compound, the lowest value of the ratio set was taken. For lysines, where all R values for a particular compound were ≥4, the average was reported. For peptides containing several possible modified lysines, the lysine with the highest number of quantification events was used for analysis and the remaining, redundant peptides were reported as alternative modification sites. Peptides included in the aggregate dataset (those used for further bioinformatics and statistical analyses) were required to have been quantified in 2 experiments for competitive isoTOP-ABPP. Lysines were categorized as liganded, if they had at least one ratio R≥4 (hit fragments). For liganded lysines with R=20 for all liganding events, lysines were required to have been quantified with R=20 in two separate experiments and were further required to have been quantified with R<20 in one additional experiment.

[2] = target: T2, PSME3 Proteasome activator complex subunit 3 (Homo sapiens, UniProt P61289); design: key to isoTOP-ABPP reactivity ratio at lysine P61289_K237: R = MS1 peak area ratio, DMSO (heavy) / compound-treated (light); key to isoTOP-ABPP reactivity ratio at lysine P61289_K12: R = MS1 peak area ratio, DMSO (heavy) / compound-treated (light); capped at 20
T2 construct: isoTOP-ABPP experiments performed in cell lysates (in vitro); endogenous in cells; host or cells: soluble proteome of human cancer cell lines (MDA-MB-231, Ramos, Jurkat)
Protocol: as §1, §2, §3, §4

[3] = target: T3, ECH1 Delta(3,5)-Delta(2,4)-dienoyl-CoA isomerase, mitochondrial (Homo sapiens, UniProt Q13011); design: key to isoTOP-ABPP reactivity ratio at lysine Q13011_K112: R = MS1 peak area ratio, DMSO (heavy) / compound-treated (light); capped at 20; conditions: for isoTOP-ABPP ratio (R) at liganded lysine Q13011_K112: sol, 231
T3 construct: isoTOP-ABPP experiments performed in cell lysates (in vitro); endogenous in cells; host or cells: soluble proteome of human cancer cell lines (MDA-MB-231, Ramos, Jurkat)
T3 sequence (Q13011 34-328): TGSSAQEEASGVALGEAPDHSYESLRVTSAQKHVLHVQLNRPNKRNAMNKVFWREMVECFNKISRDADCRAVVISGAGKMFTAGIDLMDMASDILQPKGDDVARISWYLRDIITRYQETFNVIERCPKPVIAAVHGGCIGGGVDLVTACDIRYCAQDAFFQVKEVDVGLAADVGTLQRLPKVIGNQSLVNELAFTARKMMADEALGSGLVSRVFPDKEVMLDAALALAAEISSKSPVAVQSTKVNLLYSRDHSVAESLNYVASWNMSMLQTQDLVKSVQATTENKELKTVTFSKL
Protocol: as §1, §2, §3, §4

[4] = target: T4, SRP54 Signal recognition particle 54 kDa protein (Homo sapiens, UniProt P61011); design: key to isoTOP-ABPP reactivity ratio at lysine P61011_K81: R = MS1 peak area ratio, DMSO (heavy) / compound-treated (light); capped at 20; conditions: for isoTOP-ABPP ratio, lysine P61011_K81: 50 uM_231_sol_in vitro
T4 construct: isoTOP-ABPP experiments performed in cell lysates (in vitro); endogenous in cells; host or cells: soluble proteome of human cancer cell lines (MDA-MB-231, Ramos, Jurkat)
Protocol: as §1, §2, §3, §4

T2 sequence (P61289 whole entry, one chain of several): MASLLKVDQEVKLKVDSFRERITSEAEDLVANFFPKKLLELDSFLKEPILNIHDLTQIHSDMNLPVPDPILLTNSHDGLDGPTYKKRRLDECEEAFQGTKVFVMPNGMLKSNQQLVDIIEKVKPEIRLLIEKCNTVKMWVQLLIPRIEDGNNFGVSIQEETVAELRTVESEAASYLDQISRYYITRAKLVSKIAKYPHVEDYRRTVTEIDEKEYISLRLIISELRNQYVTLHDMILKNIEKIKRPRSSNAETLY
T4 sequence (P61011 whole entry): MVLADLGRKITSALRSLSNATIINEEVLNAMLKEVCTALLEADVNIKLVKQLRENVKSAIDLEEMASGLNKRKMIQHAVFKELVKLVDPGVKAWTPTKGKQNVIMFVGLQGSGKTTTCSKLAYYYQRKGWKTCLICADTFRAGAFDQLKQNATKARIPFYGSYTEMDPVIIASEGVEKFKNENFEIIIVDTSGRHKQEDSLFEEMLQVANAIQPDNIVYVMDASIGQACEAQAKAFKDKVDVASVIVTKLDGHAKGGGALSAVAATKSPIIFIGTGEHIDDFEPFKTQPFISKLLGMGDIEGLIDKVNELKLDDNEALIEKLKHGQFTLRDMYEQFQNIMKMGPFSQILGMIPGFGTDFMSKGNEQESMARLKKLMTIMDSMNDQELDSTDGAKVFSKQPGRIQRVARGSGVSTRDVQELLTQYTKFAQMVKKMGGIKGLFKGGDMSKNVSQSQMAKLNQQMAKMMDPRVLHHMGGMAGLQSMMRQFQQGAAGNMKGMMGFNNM
T1 sequence (O43399 whole entry): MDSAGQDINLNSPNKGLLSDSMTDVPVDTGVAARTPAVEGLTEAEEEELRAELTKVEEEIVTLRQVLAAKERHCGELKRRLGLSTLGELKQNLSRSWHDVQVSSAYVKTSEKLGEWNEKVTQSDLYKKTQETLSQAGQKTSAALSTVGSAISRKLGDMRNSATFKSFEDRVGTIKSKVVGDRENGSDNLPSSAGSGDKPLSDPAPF

Structure (SMILES): CC(=O)Oc1ccc([N+](=O)[O-])cc1[N+](=O)[O-] [fragment 43, 2,4-Dinitrophenyl acetate]
isoTOP-ABPP ratio (R) at liganded lysine O43399_K90 ([1]; 50 uM, in vitro): 1.1 | isoTOP-ABPP ratio (R) at liganded lysine P61011_K81 ([4]; 50 uM, in vitro, sol, 231): 20.0 | isoTOP-ABPP ratio (R) at liganded lysine Q13011_K112 ([3]; 50 uM, in vitro): 1.2

Structure (SMILES): N#Cc1ccc(C(=O)Oc2ccc([N+](=O)[O-])cc2[N+](=O)[O-])cc1 [fragment 44, 2,4-Dinitrophenyl 4-cyanobenzoate]
isoTOP-ABPP ratio, lysine O43399_K90 ([1]; 50 uM_231_sol_in vitro): 1.1 | isoTOP-ABPP ratio, lysine P61011_K81 [4]: 1.0 | isoTOP-ABPP ratio, lysine Q13011_K112 ([3]; 50 uM_231_sol_in vitro): 0.9

Structure (SMILES): O=C(CC12CC3CC(CC(C3)C1)C2)Oc1ccc([N+](=O)[O-])cc1[N+](=O)[O-] [fragment 38, 2,4-Dinitrophenyl 2-(adamantan-1-yl)acetate]
isoTOP-ABPP ratio (R) at liganded lysine O43399_K90 ([1]; 50 uM, in vitro): 2.9 | isoTOP-ABPP ratio (R) at liganded lysine P61289_K12 ([2]; 50 uM, in vitro, sol, 231): 1.9 | isoTOP-ABPP ratio (R) at liganded lysine Q13011_K112 ([3]; 50 uM, in vitro): 0.9

Structure (SMILES): CC(C)(C)OC(=O)N=C(NC(=O)OC(C)(C)C)n1cccn1 [fragment 50, reference compound]
isoTOP-ABPP ratio, lysine O43399_K90 ([1]; 100 uM_231_sol_in vitro): 2.2 | isoTOP-ABPP ratio, lysine P61289_K12 ([2]; 100 uM_231_sol_in vitro): 0.7 | isoTOP-ABPP ratio, lysine P61289_K237 ([2]; 100 uM_231_sol_in vitro): 0.9 | isoTOP-ABPP ratio, lysine Q13011_K112 ([3]; 100 uM_231_sol_in vitro): 1.3

Structure (SMILES): O=C(CCc1cn(-c2ccccc2)nc1-c1ccccc1)Oc1c(F)c(F)c(F)c(F)c1F [fragment 19, Pentafluorophenyl 3-(1,3-diphenyl-1H-pyrazol-4-yl)propanoate]
R value (DMSO/fragment) for probe 1 labeling ([1]; O43399_K90, 50 uM, 231 sol, in vitro): 2.6 | R value (DMSO/fragment) for probe 1 labeling ([2]; P61289_K12, 50 uM, 231 sol, in vitro): 1.0 | R value (DMSO/fragment) for probe 1 labeling ([2]; P61289_K237, 50 uM, 231 sol, in vitro): 0.2 | R value (DMSO/fragment) for probe 1 labeling ([3]; Q13011_K112, 50 uM, 231 sol, in vitro): 4.7

Results, then the compound that gave them:

isoTOP-ABPP reactivity ratio at lysine O43399_K90 ([1]; 50 uM, 231 sol, in vitro): 1.4 | isoTOP-ABPP reactivity ratio at lysine P61289_K237 ([2]; 50 uM, 231 sol, in vitro): 0.8 | isoTOP-ABPP reactivity ratio at lysine Q13011_K112 ([3]; 50 uM, 231 sol, in vitro): 2.7
Structure (SMILES): O=C(CN1C(=O)c2ccccc2C1=O)Oc1c(F)c(F)c(F)c(F)c1F [fragment 27, Pentafluorophenyl 2-(1,3-dioxoisoindolin-2-yl)acetate]

isoTOP-ABPP reactivity ratio at lysine O43399_K90 ([1]; 50 uM, 231 sol, in vitro): 1.9 | isoTOP-ABPP reactivity ratio at lysine P61289_K237 ([2]; 50 uM, 231 sol, in vitro): 0.2
Structure (SMILES): O=C(Oc1c(F)c(F)c(F)c(F)c1F)C1CCN(C(=O)OCc2ccccc2)CC1 [fragment 24, 1-Benzyl 4-(pentafluorophenyl) piperidine-1,4-dicarboxylate]

isoTOP-ABPP reactivity ratio at lysine O43399_K90 ([1]; 50 uM, 231 sol, in vitro): 1.3 | isoTOP-ABPP reactivity ratio at lysine P61011_K81 ([4]; 50 uM, 231 sol, in vitro): 1.0 | isoTOP-ABPP reactivity ratio at lysine P61289_K12 ([2]; 50 uM, 231 sol, in vitro): 0.9 | isoTOP-ABPP reactivity ratio at lysine P61289_K237 ([2]; 50 uM, 231 sol, in vitro): 1.1
Structure (SMILES): O=C(CCc1coc2cc(F)ccc2c1=O)Oc1c(F)c(F)c(F)c(F)c1F [fragment 26, Pentafluorophenyl 3-(7-fluoro-4-oxo-4H-chromen-3-yl)propanoate]

isoTOP-ABPP ratio, lysine O43399_K90 ([1]; 50 uM_231_sol_in vitro): 1.8 | isoTOP-ABPP ratio, lysine P61011_K81 [4]: 1.1 | isoTOP-ABPP ratio, lysine Q13011_K112 ([3]; 50 uM_231_sol_in vitro): 1.5
Structure (SMILES): O=C(Oc1c(F)c(F)cc(F)c1F)c1cc(C(F)(F)F)cc(C(F)(F)F)c1 [fragment 48, 2,3,5,6-Tetrafluorophenyl 3,5-bis(trifluoromethyl)benzoate]
